Reference: patent US11306096B2, “4,6 dihydropyrrolo [3,4-C] pyrazole-5 (1H)-carbonitrile derivates for treating cancer” (MISSION THERAPEUTICS LIMITED, priority 2016, dated 2022)

Biological target: USP7 (Homo sapiens (Human), UniProt Q93009)
Test: USP7 Biochemical IC50 Assay
Details: FLAG-USP7; enzyme and compound incubated 30 min at room temp; TAMRA labelled peptide-ubiquitin fluorescence polarisation substrate; read after 2 hr; read-out: IC50 range
Procedure: The USP7 construct was PCR amplified and cloned into a pFLAG-CMV-6a vector (Sigma-Aldrich) with an N-terminal FLAG tag. HEK293T cells were transfected with FLAG-USP7 using TransIT-LT1 transfection reagent (Mirus) according to the manufacturer's instructions. Cells were harvested 40 hours after transfection. […] The resin was washed two times with low salt buffer plus protease inhibitors (complete mini, Roche) and phosphatase inhibitors (PhosSTOP mini, Roche) and one time with high salt buffer (20 mM Tris, pH 7.5, 500 mM NaCl, 0.5 mM EDTA, 5 mM beta-mercaptoethanol, protease inhibitors (complete mini, Roche) and phosphatase inhibitors (PhosSTOP mini, Roche). To elute the bound USP7, elution buffer (10 mM Tris, pH 7.5, 150 mM NaCl, 0.5 mM EDTA, 10% glycerol, 0.5% NP40, 5 mM beta-mercaptoethanol, 0.15 mg/ml 3×FLAG peptide (Sigma-Aldrich)) was added to the resin and incubated at 4° C. for 2.5 hours rotating. The resin was centrifuged at 4000 rpm for 30 seconds, and the supernatant containing purified FLAG-USP7 was removed and stored at −80° C.
USP7 Biochemical IC50 Assay
A typical 8-point dilution series would be 100, 30, 10, 3, 1, 0.3, 0.1, 0.03 μM final. […] Either 1 μl of 50% DMSO or diluted compound was added to the plate. USP7 was diluted in reaction buffer (20 mM Tris, pH 7.5, 100 mM NaCl, 0.05% Tween 20, 0.5 mg/ml BSA, 5 mM—beta mercaptoethanol) to the equivalent of 0.0025 μl/well and 10 μl of diluted USP7 was added to the compound. Enzyme and compound were incubated for 30 min at room temp. Reactions were initiated by the addition of 50 nM of TAMRA labelled peptide linked to ubiquitin via an iso-peptide bond as fluorescence polarisation substrate. Reactions were read immediately after addition of substrate and following a 2 hr incubation at room temperature. Readings were performed on a Pherastar Plus (BMG Labtech). λ Excitation 540 nm; λ Emission 590 nm.

Sequence of USP7 (Q93009 whole entry): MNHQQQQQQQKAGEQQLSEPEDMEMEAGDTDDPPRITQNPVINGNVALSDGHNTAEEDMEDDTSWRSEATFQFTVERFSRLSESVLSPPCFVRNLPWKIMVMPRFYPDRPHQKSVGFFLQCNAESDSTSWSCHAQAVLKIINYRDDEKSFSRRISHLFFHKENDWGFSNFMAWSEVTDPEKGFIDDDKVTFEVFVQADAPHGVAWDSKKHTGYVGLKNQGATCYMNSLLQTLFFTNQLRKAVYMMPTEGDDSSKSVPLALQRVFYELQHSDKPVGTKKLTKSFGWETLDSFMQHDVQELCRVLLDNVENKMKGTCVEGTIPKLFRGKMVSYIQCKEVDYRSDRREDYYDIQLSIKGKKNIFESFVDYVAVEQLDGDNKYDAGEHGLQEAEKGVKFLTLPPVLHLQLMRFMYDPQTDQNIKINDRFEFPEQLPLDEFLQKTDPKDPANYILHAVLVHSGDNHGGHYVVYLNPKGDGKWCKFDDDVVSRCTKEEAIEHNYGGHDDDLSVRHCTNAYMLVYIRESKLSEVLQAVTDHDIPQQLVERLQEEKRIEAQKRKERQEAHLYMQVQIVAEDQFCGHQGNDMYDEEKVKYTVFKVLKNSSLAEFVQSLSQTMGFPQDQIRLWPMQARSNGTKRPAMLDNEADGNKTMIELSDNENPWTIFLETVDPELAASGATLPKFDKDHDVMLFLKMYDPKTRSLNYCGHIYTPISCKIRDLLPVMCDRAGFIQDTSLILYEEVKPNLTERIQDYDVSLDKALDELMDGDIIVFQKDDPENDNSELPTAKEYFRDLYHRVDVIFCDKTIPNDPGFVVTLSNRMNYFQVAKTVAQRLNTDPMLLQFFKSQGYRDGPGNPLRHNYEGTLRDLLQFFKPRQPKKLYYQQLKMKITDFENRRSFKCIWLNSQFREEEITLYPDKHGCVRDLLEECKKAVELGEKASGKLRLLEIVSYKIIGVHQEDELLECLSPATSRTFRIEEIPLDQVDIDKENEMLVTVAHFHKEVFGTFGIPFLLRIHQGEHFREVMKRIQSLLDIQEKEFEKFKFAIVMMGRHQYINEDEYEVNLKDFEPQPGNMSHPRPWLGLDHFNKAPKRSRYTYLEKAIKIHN

`Cc1ccc2[nH]ncc2c1-c1n[nH]c2c1CN(C#N)C2` [Example 54, 3-(5-Methyl-1H-indazol-4-yl)-4,6-dihydropyrrolo[3,4-c]pyrazole-5(1H)-carbonitrile] and `COc1ccc(-c2n[nH]c3c2CN(C#N)C3)cn1` [Example 46, 3-(6-Methoxypyridin-3-yl)-4,6-dihydro-pyrrolo[3,4-c]pyrazole-5(1H)-carbonitrile] cannot be ordered by IC50: < 10 µM for the first, < 10 µM for the second.

`COc1ccc(Cl)cc1-c1n[nH]c2c1CN(C#N)C2` [Example 77, 3-(5-Chloro-2-methoxyphenyl)-4,6-dihydropyrrolo[3,4-c]pyrazole-5(4H)-carbonitrile] and `COc1ccc(C(C)C)cc1-c1n[nH]c2c1CN(C#N)C2` [Example 26, 3-(5-Isopropyl-2-methoxyphenyl)-4,6-dihydropyrrolo[3,4-c]pyrazole-5(1H)-carbonitrile] cannot be ordered by IC50: < 10 µM for the first, < 10 µM for the second.

`CC(C)n1nc(-c2ccccc2)c2c1CN(C#N)C2` [Example 23, 1-Isopropyl-3-phenyl-4,6-dihydropyrrolo[3,4-c]pyrazole-5(1H)-carbonitrile] and `N#CN1Cc2[nH]nc(-c3ccccc3)c2C1` [Example 29, 3-Phenyl-4,6-dihydropyrrolo[3,4-c]pyrazole-5(1H)-carbonitrile] cannot be ordered by IC50: < 10 µM for the first, < 10 µM for the second.

`COc1ccc(-n2ncc3c2CN(C#N)C3)cc1` [Example 1, 1-(4-Methoxyphenyl)-4,6-dihydropyrrolo[3,4-c]pyrazole-5(1H)-carbonitrile] and `COc1cccc(-n2ncc3c2CN(C#N)C3)c1` [Example 7, 1-(3-Methoxyphenyl)-4,6-dihydropyrrolo[3,4-c]pyrazole-5(1H)-carbonitrile] fall in the same range of IC50: 10 to 30 µM for the first, 10 to 30 µM for the second.

Compared with `N#CN1Cc2c(-c3ccccc3)nn(Cc3ccccc3)c2C1` [Example 24, 1-Benzyl-3-phenyl-4,6-dihydropyrrolo[3,4-c]pyrazole-5(1H)-carbonitrile], `N#CN1Cc2c(Nc3cc4ccccc4cn3)nn(Cc3ccccc3)c2C1` [Example 32, 1-Benzyl-3-(isoquinolin-3-ylamino)-4,6-dihydropyrrolo[3,4-c]pyrazole-5(1H)-carbonitrile] is lower in IC50: 10 to 30 µM for the first, < 10 µM for the second.

`Cc1nn(-c2ccc(C(N)=O)cc2)c2c1CN(C#N)C2` [Example 16, 4-(5-Cyano-3-methyl-5,6-dihydropyrrolo[3,4-c]pyrazol-1(4H)-yl)benzamide] and `Cc1ccc(C(=O)NCc2nn(-c3ccccc3)c3c2CN(C#N)C3)cc1` [Example 35, N-((5-Cyano-1-phenyl-1,4,5,6-tetrahydropyrrolo[3,4-c]pyrazol-3-yl)methyl)-4-methylbenzamide] cannot be ordered by IC50: < 10 µM for the first, < 10 µM for the second.

Compared with `Cn1nc2c(c1Nc1cc3ccccc3cn1)CN(C#N)C2` [Example 30, 3-(Isoquinolin-3-ylamino)-2-methyl-2,6-dihydropyrrolo[3,4-c]pyrazole-5(4H)-carbonitrile], `N#CN1Cc2cnn(-c3cc(-c4ccccc4)n[nH]3)c2C1` [Example 20, 1-(3-Phenyl-1H-pyrazol-5-yl)-4,6-dihydropyrrolo[3,4-c]pyrazole-5(1H)-carbonitrile] is higher in IC50: < 10 µM for the first, 10 to 30 µM for the second. The first is the more potent here.

`CN1CCN(c2ccc(-c3n[nH]c4c3CN(C#N)C4)cn2)CC1` [Example 69, 3-(6-(4-Methylpiperazin-1-yl)pyridin-3-yl)-4,6-dihydropyrrolo[3,4-c]pyrazole-5(1H)-carbonitrile] and `CN1CCN(c2ccc(-c3n[nH]c4c3CN(C#N)C4)cc2)CC1` [Example 66, 3-(4-(4-Methylpiperazin-1-yl)phenyl)-4,6-dihydro-pyrrolo[3,4-c]pyrazole-5(1H)-carbonitrile] cannot be ordered by IC50: < 10 µM for the first, < 10 µM for the second.

`N#CN1Cc2[nH]nc(-c3ccc(F)cc3)c2C1` [Example 59, 3-(4-Fluorophenyl)-4,6-dihydropyrrolo[3,4-c]pyrazole-5(1H)-carbonitrile] and `N#CN1Cc2[nH]nc(-c3cccc(F)c3)c2C1` [Example 57, 3-(3-Fluorophenyl)-4,6-dihydropyrrolo[3,4-c]pyrazole-5(1H)-carbonitrile] cannot be ordered by IC50: < 10 µM for the first, < 10 µM for the second.

First: N#CN1Cc2[nH]nc(-c3cc(OC(F)(F)F)ccc3Cl)c2C1 [Example 44, 3-(2-Chloro-5-(trifluoro-methoxy)phenyl)-4,6-dihydropyrrolo[3,4-c]pyrazole-5(1H)-carbonitrile]
Second: N#CN1Cc2[nH]nc(-c3cccc(OC(F)(F)F)c3)c2C1 [Example 40, 3-(3-(Trifluoro-methoxy)phenyl)-4,6-dihydropyrrolo[3,4-c]pyrazole-5(1H)-carbonitrile]
The IC50 of the first is lower: < 10 µM for the first, 10 to 30 µM for the second.

`N#CN1Cc2[nH]nc(-c3ccc(N4CCOCC4)cc3)c2C1` [Example 72, 3-(4-Morpholinophenyl)-4,6-dihydropyrrolo[3,4-c]pyrazole-5(1H)-carbonitrile] and `CN1CCN(C(=O)c2ccc(-c3n[nH]c4c3CN(C#N)C4)cc2)CC1` [Example 51, 3-(4-(4-Methylpiperazine-1-carbonyl)phenyl)-4,6-dihydropyrrolo[3,4-c]pyrazole-5(1H)-carbonitrile] cannot be ordered by IC50: < 10 µM for the first, < 10 µM for the second.

`N#CN1Cc2cnn(-c3n[nH]c4ccccc34)c2C1` [Example 19, 1-(1H-Indazol-3-yl)-4,6-dihydropyrrolo[3,4-c]pyrazole-5(1H)-carbonitrile] and `N#CN1Cc2cnn(-c3cnn(-c4ccccc4)c3)c2C1` [Example 8, 1-(1-Phenyl-1H-pyrazol-4-yl)-4,6-dihydropyrrolo[3,4-c]pyrazole-5(1H)-carbonitrile] cannot be ordered by IC50: < 10 µM for the first, < 10 µM for the second.

`CN1CCN(c2cccc(-c3n[nH]c4c3CN(C#N)C4)c2)CC1` [Example 71, 3-(3-(4-Methylpiperazin-1-yl)phenyl)-4,6-dihydropyrrolo[3,4-c]pyrazole-5(1H)-carbonitrile] and `N#Cc1cccc(-c2n[nH]c3c2CN(C#N)C3)c1` [Example 38, 3-(3-Cyanophenyl)-4,6-dihydropyrrolo[3,4-c]pyrazole-5(1H)-carbonitrile] cannot be ordered by IC50: < 10 µM for the first, < 10 µM for the second.

`N#CN1Cc2[nH]nc(CNC(=O)c3cc(-c4ccccc4)n[nH]3)c2C1` [Example 34, N-((5-Cyano-1,4,5,6-tetrahydropyrrolo[3,4-c]pyrazol-3-yl)methyl)-3-phenyl-1H-pyrazole-5-carboxamide] and `N#CN1Cc2[nH]nc(-c3ccc(C(=O)NCc4ccccc4)cc3)c2C1` [Example 49, N-Benzyl-4-(5-cyano-1,4,5,6-tetrahydropyrrolo[3,4-c]pyrazol-3-yl)benzamide] cannot be ordered by IC50: < 10 µM for the first, < 10 µM for the second.

First: CNC(=O)c1cc(-n2ncc3c2CN(C#N)C3)ccc1OC [Example 18, 5-(5-Cyano-5,6-dihydropyrrolo[3,4-c]pyrazol-1(4H)-yl)-2-methoxy-N-methylbenzamide]
Second: CC(NC(=O)c1cccc(-n2ncc3c2CN(C#N)C3)c1)c1ccccc1 (centres unmarked) [Example 12, 3-(5-Cyano-5,6-dihydropyrrolo[3,4-c]pyrazol-1(4H)-yl)-N-(1-phenylethyl)benzamide]
The IC50 of the first is higher: 30 to 100 µM for the first, 10 to 30 µM for the second. The second is the more potent here.

First: N#CN1Cc2[nH]nc(-c3ccnn3Cc3ccccc3)c2C1 [Example 53, 3-(1-Benzyl-1H-pyrazol-5-yl)-4,6-dihydropyrrolo[3,4-c]pyrazole-5(1H)-carbonitrile]
Second: N#CN1Cc2[nH]nc(-c3ccccc3F)c2C1 [Example 58, 3-(2-Fluorophenyl)-4,6-dihydropyrrolo[3,4-c]pyrazole-5(1H)-carbonitrile]
The IC50 of the first is higher: 10 to 30 µM for the first, < 10 µM for the second. The second is the more potent here.

`CNC(=O)c1ccc(-c2n[nH]c3c2CN(C#N)C3)cn1` [Example 45, 5-(5-Cyano-1,4,5,6-tetrahydropyrrolo[3,4-c]pyrazol-3-yl)-N-methylpicolinamide] and `CC(C)Oc1ccc(-c2n[nH]c3c2CN(C#N)C3)cn1` [Example 50, 3-(6-Isopropoxypyridin-3-yl)-4,6-dihydropyrrolo[3,4-c]pyrazole-5(1H)-carbonitrile] cannot be ordered by IC50: < 10 µM for the first, < 10 µM for the second.

`Cc1ccc(F)c(-c2nn(C)c3c2CN(C#N)C3)c1` [Example 60, 3-(2-fluoro-5-methylphenyl)-1-methyl-4,6-dihydropyrrolo[3,4-c]pyrazole-5(1H)-carbonitrile] and `CN(C)S(=O)(=O)c1cccc(-c2n[nH]c3c2CN(C#N)C3)c1` [Example 47, 3-(5-Cyano-1,4,5,6-tetrahydropyrrolo[3,4-c]pyrazol-3-yl)-N,N-dimethylbenzene-sulfonamide] cannot be ordered by IC50: < 10 µM for the first, < 10 µM for the second.

Compared with `N#CN1Cc2[nH]nc(-c3cccc(S(=O)(=O)NC4CC4)c3)c2C1` [Example 55, 3-(5-Cyano-1,4,5,6-tetrahydropyrrolo[3,4-c]pyrazol-3-yl)-N-cyclopropylbenzene-sulfonamide], `N#CN1Cc2cnn(-c3ccc(C(=O)NCc4ccccn4)cc3)c2C1` [Example 14, 4-(5-Cyano-5,6-dihydro-pyrrolo[3,4-c]pyrazol-1(4H)-yl)-N-(pyridin-2-ylmethyl)benzamide] is higher in IC50: < 10 µM for the first, 10 to 30 µM for the second.
